Assay [1] concerns the target T1, Tyrosine-protein phosphatase non-receptor type 7 (Homo sapiens, UniProt P35236).
T1 sequence (P35236 whole entry): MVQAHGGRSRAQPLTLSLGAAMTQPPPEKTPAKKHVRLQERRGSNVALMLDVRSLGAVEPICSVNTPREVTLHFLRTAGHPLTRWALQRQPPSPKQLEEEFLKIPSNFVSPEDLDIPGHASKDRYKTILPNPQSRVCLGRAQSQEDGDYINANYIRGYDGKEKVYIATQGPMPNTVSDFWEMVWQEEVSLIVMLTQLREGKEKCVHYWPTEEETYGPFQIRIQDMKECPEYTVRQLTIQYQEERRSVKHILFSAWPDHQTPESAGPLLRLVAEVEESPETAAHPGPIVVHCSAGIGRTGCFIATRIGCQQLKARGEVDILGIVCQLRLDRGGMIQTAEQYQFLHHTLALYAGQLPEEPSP
In words: HePTP tyrosine phosphatase activity blockers – biochemical, absorbance, leukemia target, primary screen (AID 521). The format is functional.

The target of assay [2] is T2, RNA-binding protein pos-1 (Caenorhabditis elegans, UniProt G5EF15).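 Further: purified POS-1 fused to maltose binding protein made in E. coli; potency of compounds blocking POS-1 binding to fluorescent RNA.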
T2 sequence (G5EF15 whole entry): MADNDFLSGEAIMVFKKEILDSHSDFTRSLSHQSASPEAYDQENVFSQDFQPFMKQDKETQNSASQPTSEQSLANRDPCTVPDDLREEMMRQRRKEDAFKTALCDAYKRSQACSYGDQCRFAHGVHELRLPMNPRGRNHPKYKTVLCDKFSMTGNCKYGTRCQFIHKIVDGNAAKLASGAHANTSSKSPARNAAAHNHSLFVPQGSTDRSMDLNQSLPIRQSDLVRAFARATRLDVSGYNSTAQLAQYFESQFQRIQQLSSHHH
As to the kind of experiment: disruptors of C. elegans POS-1 RNA interaction – biochemical, fluorescence polarization, dose response (AID 1964). (In fluorescence polarisation assays a small probe gives low polarisation when free and higher when bound to something large.)

In assay [3] the target is T3, Zinc finger protein mex-5 (Caenorhabditis elegans, UniProt Q9XUB2).
T3 sequence (Q9XUB2 whole entry): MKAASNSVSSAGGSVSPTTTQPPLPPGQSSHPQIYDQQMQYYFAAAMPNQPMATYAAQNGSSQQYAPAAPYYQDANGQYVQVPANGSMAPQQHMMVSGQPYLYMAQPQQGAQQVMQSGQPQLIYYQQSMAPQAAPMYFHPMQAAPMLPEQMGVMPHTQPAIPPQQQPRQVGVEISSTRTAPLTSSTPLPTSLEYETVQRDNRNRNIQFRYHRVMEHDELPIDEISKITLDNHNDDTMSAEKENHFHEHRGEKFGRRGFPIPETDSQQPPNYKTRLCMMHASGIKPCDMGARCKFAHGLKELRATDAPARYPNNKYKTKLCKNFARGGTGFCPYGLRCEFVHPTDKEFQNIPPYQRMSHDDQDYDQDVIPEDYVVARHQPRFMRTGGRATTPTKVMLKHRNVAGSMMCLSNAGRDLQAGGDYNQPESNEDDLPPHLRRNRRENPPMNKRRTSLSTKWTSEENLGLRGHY
As to the kind of experiment: potency of MEX-5 RNA-binding blockers – biochemical, C. elegans, fluorescence polarization, dose response (AID 1960).

The target of assay [4] is Voltage-dependent T-type calcium channel subunit alpha-1H (Homo sapiens, UniProt O95180). The class given is functional.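 Further: channel activity triggered by adding a high calcium stimulation buffer.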
Sequence of Voltage-dependent T-type calcium channel subunit alpha-1H (O95180 whole entry): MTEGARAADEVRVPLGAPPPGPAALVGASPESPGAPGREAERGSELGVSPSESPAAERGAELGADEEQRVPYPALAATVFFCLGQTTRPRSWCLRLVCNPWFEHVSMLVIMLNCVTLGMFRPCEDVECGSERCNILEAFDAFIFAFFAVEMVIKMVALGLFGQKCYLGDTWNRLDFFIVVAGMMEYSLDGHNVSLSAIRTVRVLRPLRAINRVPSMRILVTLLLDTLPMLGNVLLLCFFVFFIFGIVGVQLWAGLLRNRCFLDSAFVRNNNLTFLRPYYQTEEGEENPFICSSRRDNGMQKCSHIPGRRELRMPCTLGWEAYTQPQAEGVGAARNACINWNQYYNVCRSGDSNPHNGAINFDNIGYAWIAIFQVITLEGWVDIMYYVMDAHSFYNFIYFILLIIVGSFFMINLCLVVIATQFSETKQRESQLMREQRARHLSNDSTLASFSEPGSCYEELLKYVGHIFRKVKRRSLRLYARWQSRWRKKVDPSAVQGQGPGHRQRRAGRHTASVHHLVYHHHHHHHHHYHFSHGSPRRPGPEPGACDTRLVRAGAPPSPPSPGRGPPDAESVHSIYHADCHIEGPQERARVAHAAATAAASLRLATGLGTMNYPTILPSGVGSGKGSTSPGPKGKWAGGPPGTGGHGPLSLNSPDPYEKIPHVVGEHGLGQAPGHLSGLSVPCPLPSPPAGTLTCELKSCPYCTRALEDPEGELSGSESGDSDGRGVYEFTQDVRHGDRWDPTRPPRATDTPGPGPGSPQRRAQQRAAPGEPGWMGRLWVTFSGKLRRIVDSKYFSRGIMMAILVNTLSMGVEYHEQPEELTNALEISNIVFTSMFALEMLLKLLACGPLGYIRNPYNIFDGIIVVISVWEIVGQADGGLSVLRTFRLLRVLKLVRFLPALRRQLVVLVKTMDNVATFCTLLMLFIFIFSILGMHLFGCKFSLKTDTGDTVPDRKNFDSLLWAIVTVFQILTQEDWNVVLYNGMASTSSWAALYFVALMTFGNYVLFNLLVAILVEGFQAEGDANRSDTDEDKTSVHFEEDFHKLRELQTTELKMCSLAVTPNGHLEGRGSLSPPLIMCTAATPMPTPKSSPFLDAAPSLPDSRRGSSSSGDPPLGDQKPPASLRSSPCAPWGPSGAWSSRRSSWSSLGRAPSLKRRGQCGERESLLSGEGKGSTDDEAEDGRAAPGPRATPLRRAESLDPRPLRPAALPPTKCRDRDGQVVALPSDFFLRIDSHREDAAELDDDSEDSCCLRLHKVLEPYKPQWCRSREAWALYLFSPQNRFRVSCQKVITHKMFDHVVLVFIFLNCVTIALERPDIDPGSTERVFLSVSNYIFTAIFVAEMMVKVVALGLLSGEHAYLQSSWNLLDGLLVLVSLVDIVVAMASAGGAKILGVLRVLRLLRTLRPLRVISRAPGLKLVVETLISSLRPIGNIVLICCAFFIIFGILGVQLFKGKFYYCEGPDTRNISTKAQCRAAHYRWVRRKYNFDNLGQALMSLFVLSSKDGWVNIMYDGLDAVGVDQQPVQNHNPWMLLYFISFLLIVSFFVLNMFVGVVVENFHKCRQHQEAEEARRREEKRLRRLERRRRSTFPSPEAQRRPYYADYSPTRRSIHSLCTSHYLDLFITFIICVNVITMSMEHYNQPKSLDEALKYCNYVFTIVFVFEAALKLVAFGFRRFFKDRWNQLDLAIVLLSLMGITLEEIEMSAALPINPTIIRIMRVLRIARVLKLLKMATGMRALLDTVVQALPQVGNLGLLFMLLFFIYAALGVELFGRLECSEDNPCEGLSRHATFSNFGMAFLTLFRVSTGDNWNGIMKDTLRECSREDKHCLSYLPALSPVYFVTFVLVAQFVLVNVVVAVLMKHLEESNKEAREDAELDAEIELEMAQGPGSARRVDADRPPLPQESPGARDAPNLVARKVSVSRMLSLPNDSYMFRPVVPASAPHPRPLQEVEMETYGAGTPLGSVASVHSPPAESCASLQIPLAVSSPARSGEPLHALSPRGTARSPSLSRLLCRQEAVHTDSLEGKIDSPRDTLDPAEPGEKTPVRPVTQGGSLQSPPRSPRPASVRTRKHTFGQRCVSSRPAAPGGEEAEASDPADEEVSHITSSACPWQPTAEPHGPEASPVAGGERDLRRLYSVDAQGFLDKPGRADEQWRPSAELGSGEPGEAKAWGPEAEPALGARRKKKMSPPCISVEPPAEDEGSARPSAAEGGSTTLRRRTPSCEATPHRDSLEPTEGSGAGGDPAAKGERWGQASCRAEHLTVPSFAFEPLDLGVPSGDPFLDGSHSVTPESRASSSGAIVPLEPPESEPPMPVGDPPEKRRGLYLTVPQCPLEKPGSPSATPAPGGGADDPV
A further assay concerns the target Ephrin type-A receptor 4 (Mus musculus, UniProt Q03137). In words: EphA4 ligand-binding antagonists – biochemical, colorimetric, mouse EphA4, primary screen (AID 689). The format is functional.
A short description of assay [5]: cells.
In assay [6] the target is T4, Dual specificity protein phosphatase 6 (Rattus norvegicus, UniProt Q64346).
T4 sequence (Q64346 whole entry): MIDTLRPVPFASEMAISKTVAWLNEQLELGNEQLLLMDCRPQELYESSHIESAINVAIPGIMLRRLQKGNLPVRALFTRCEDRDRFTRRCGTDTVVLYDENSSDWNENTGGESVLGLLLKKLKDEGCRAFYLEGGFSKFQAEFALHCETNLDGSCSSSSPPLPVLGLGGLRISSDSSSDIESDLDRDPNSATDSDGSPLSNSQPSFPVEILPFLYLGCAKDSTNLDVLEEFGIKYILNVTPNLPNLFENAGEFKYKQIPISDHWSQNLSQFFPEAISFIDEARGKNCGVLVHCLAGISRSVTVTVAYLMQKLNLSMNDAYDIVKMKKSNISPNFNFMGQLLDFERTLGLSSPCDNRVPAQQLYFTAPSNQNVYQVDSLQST
As to the kind of experiment: inhibition of rat DUSP6 enzyme activity – biochemical, in vitro, primary screen (AID 425).

A further assay addresses T5, Bcl-2-related protein A1 (Mus musculus, UniProt Q07440).
T5 sequence (Q07440 whole entry): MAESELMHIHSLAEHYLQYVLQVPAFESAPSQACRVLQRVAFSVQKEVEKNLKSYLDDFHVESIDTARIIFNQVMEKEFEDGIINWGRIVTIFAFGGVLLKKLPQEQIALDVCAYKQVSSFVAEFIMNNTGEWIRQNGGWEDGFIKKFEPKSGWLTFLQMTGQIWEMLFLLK
In words: displacement of Bid BH3 peptide from Bfl-1 – biochemical, fluorescence polarization, FITC-Bid, mouse, primary screen (AID 432).

For assay [7], the target named is DNA dC->dU-editing enzyme APOBEC-3A (Homo sapiens, UniProt P31941). In words: Dose Response confirmation of small molecule APOBEC3A DNA Deaminase Inhibitors via a fluorescence-based single-stranded DNA deaminase assay. [Related pubchem assays (depositor defined):AID493011, AID493024]. The format is functional.
Sequence of DNA dC->dU-editing enzyme APOBEC-3A (P31941 whole entry): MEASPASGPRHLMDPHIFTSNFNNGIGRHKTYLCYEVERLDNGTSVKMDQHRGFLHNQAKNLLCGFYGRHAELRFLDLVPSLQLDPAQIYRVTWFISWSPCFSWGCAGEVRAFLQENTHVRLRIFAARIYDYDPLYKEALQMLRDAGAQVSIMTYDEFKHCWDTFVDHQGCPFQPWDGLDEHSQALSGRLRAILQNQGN
The target of assay [8] is DNA dC->dU-editing enzyme APOBEC-3G (Homo sapiens, UniProt Q9HC16). The format is functional.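 Further: Dose-response counterscreen measuring inhibition of APOBEC3G DNA deaminase activity, run while confirming APOBEC3A inhibitors.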
A further assay has as its target T6, Bcl-2-like protein 10 (Homo sapiens, UniProt Q9HD36).
T6 sequence (Q9HD36 whole entry): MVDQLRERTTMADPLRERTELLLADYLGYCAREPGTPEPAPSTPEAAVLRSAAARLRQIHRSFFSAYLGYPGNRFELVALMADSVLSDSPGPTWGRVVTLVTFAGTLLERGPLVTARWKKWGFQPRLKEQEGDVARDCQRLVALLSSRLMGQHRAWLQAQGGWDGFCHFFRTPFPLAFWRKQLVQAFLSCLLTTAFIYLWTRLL
In words: Bcl-B/TR3 peptide binding disruption – biochemical, fluorescence polarization, FITC-TR3 peptide, selectivity assay for Bfl-1 inhibitor project, primary screen (AID 748).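 Further: fluorescence polarization from a fluorescein-labelled TR3 peptide binding purified Bcl-B.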

The nature of assay [9]: Luminescence Cell-Based Dose Response HTS to Identify Inhibitors of 5'UTR Stem-Loop Driven Prion Protein mRNA Translation in H4 Neuroglioblastoma Cells. [Related pubchem assays: 1827 (Project Summary), 1813 (Primary HTS)]. The class given is functional.
The next assay concerns Vero. As to the kind of experiment: mammalian cell viability reduction – secondary assay, cytotoxicity control for West Nile virus antiviral project, dose response (AID 1650). The class given is functional. The settings on record: Chlorocebus sabaeus.
Assay [10] can be described thus: luciferase reporter signal suppression in cells – H4 neuroglioma cells, luminescence, dose response (AID 1990). The class given is functional, cell-based. A general note: In a reporter assay the amount or activity of a reporter protein is the signal.
Assay [11] can be described thus: alpha-synuclein stem-loop luciferase translation blockers – H4 neuroglioma cells, luminescence, confirmation (AID 1988). The class given is functional, cell-based.
Assay [12] is described as follows: Trypanosoma cruzi growth suppression in host cells – NIH3T3 host cells, beta-gal luminescence, confirmation (AID 2044).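 Further: intracellular parasites grown in NIH/3T3 mouse fibroblasts as host cells; luminescent beta-galactosidase reporter signal from transgenic T. cruzi replicating inside host cells; inhibitors lower the luminescence signal.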 The class given is functional, cell-based.
Assay [13] can be described thus: NIH3T3 cell viability loss – ATP luminescence, mouse fibroblasts, counter-screen, dose response (AID 2010).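 Further: cells exposed to compound for about 90 hours before reading.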 The format is functional, cell-based. A general note: The purpose of a counterscreen is to sort out artefacts and off-target activity.
Assay [14] can be described thus: A Cell Based Secondary Assay To Explore Cytotoxicity of Compounds that Sensitize Mycobacterium Tuberculosis to Beta-Lactam Antibiotics. The format is functional.
The nature of assay [15]: viability of uninfected HEp-2 cells – cell-based, HTS, cytotoxicity control for RSV inhibitor project, dose response (AID 2410). Conditions: human respiratory syncytial virus. The format is functional.
Assay [16] in a line: Vero E6 cell cytotoxicity, dose response, cytotoxicity control for non-replicating M. tuberculosis project, secondary assay (AID 492998). The class given is functional, VeroE6. The settings on record: Vero C1008.
Assay [17] can be described thus: THP-1 cell cytotoxicity, dose response, cytotoxicity control for non-replicating M. tuberculosis project (AID 489025). The class given is functional.
Assay [18] is described as follows: cells. The class given is functional.
Assay [19] has as its target Peroxisome proliferator-activated receptor gamma/Nuclear receptor corepressor 2 (Homo sapiens, UniProt P37231+Q9Y618). As to the kind of experiment: Counterscreen for NR2E3 inverse agonists: TR-FRET-based biochemical high throughput dose response assay to identify inverse agonists of the interaction between peroxisome proliferator-activated receptor gamma (PPARg) and nuclear receptor co-repressor 2 (NCOR2). The format is functional.

Another assay addresses Cytochrome P450 2C19 (Homo sapiens, UniProt P33261). In words: Cytochrome panel assay with activity outcomes. Panel member name: p450-cyp2c19 Compounds with AC50 equal or less than 10 uM are considered active. The class given is functional. Conditions: read-out: AC50.
For assay [20], the target named is Photoreceptor-specific nuclear receptor (Homo sapiens, UniProt Q9Y5X4). In words: ligands suppressing NR2E3 nuclear receptor activity – biochemical, TR-FRET, dose response (AID 463256). The class given is functional.
Sequence of Photoreceptor-specific nuclear receptor (Q9Y5X4 whole entry): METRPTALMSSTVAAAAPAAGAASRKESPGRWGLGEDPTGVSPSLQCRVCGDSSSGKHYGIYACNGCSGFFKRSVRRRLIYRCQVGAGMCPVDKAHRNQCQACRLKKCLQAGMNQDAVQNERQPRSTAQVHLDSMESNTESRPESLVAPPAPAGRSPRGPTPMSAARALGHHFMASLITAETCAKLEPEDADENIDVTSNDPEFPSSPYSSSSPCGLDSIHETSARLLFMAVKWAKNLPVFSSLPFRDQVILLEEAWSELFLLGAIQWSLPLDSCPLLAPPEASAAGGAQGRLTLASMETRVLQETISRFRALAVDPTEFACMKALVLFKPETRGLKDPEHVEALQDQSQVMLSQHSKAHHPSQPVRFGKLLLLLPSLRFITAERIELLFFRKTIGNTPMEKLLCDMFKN
Another assay concerns the target Cytochrome P450 3A4 (Homo sapiens, UniProt P08684).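 Further: CYP3A4 tested as one member of a cytochrome P450 panel screen.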
In assay [21] the test system is HEK293. As to the kind of experiment: cells. The settings on record: Homo sapiens.
Another assay concerns the target Cytochrome P450 2C9 (Homo sapiens, UniProt P11712).
For assay [22], the system named is HEK293. In words: cells. The settings on record: Homo sapiens. The source holds these as a separate data set.

Active and inactive are the calls of the source. Some results are limits rather than exact numbers.

Here are results for 10 compounds from ChEMBL document CHEMBL1201862, “PubChem BioAssay data set” (2004).

In general, IC50 refers to the concentration at which inhibition is half-maximal. For orientation: EC50 means the concentration at which the effect is half-maximal. One may read the CC50 as the concentration that lowers cell viability or growth by half. A word on the AC50: it is the concentration at which the activity in the assay is half-maximal.

Sequence of Ephrin type-A receptor 4 (Q03137 whole entry): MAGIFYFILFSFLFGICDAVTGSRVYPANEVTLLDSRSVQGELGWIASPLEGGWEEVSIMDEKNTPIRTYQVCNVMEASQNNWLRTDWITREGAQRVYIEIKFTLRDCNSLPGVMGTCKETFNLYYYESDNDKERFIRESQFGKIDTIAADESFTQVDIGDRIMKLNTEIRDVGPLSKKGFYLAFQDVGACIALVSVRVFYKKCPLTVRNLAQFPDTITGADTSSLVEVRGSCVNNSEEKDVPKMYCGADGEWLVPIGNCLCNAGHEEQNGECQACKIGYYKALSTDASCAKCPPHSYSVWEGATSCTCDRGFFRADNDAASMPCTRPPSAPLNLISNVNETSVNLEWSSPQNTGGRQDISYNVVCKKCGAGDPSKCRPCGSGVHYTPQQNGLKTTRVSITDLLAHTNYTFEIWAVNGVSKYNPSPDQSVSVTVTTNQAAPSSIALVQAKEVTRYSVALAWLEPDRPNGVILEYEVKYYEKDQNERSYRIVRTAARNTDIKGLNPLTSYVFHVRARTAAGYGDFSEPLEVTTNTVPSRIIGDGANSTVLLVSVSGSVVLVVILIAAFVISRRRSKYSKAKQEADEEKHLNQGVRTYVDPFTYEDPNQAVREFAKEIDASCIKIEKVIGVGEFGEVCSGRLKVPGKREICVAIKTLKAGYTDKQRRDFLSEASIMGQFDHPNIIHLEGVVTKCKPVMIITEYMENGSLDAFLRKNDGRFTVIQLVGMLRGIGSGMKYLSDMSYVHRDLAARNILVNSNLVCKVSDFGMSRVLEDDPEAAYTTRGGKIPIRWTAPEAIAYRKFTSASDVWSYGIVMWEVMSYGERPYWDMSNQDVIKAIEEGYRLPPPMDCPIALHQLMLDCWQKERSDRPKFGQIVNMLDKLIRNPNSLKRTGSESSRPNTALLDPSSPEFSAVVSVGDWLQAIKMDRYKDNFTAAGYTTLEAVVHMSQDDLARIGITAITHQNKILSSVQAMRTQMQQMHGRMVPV
Sequence of Cytochrome P450 2C9 (P11712 whole entry): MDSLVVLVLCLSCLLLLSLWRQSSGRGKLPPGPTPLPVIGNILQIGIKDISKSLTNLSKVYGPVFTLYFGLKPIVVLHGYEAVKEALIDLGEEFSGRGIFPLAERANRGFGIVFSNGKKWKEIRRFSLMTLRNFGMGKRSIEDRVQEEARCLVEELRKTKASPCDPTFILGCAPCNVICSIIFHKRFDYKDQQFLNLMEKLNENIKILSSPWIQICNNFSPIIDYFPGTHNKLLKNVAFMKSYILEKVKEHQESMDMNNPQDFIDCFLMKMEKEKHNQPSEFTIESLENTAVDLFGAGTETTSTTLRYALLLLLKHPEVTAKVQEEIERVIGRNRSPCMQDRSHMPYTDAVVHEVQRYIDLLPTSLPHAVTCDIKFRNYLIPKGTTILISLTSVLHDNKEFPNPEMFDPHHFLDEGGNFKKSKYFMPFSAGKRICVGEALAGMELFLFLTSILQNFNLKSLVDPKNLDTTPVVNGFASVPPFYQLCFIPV
Sequence of Cytochrome P450 2C19 (P33261 whole entry): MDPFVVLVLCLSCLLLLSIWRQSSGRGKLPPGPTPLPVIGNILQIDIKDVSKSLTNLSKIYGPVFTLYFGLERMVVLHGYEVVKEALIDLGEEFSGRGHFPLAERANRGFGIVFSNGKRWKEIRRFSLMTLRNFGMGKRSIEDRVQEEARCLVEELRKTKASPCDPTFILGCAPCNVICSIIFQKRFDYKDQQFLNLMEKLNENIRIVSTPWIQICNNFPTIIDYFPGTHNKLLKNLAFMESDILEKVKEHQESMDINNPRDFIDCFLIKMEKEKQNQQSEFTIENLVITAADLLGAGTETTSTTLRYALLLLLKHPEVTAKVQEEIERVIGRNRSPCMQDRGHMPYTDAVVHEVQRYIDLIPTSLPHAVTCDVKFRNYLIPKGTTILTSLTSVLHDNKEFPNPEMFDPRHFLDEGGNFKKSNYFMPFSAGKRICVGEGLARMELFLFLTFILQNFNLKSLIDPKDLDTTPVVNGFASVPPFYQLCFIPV

In the case of `CCc1ccccc1NC(=O)CN(C)Cc1nc(N)nc(Nc2ccccc2C)n1`, in [1], the IC50 is > 100 µM (not active).

In the case of `Cc1ccc2cc(/C=C3\N=C(c4ccccc4)OC3=O)c(N3CCOCC3)nc2c1`, the EC50 in [2] is > 300 µM (not active); in [3], > 300 µM (inconclusive); in [4], 10.8 µM (active). Also, the half-inhibitory concentration (IC50) at Ephrin type-A receptor 4 was 1.54 µM (active).

On to `Cc1cccc2nc(COc3ccc(Cl)c4cccnc34)cn12`, for which the 50% inhibitory concentration (IC50) in the assay “cells [5]” was 33.2 µM (active).

For `CCn1c(SCC(=O)O)nc2sc3c(c2c1=O)CCC3`, the concentration for half-maximal inhibition (IC50) in assay [6] was > 10 µM (not active); on Bcl-2-related protein A1, 14.5 µM (active); in assay [1], 1.29 µM (active); in [7] it was 17.5 µM (active); in [8], 40.8 µM (active); at Bcl-2-like protein 10, 8.5 µM (active).

As for `O=C(Nc1ccc(O)c2c(=O)cc(-c3cccc(Cl)c3)oc12)c1cccc(Cl)c1`, the EC50 in assay [9] was > 120 µM (not active); in assay [10] it was > 120 µM (not active); in assay [11], 10.2 µM (active). Besides, in the assay with Vero, the CC50 was 0.83 µM (active).

`c1ccc(N2CCN(Cc3nc4ccccc4[nH]3)CC2)nc1` [ABT-724]: in the assay “cells [5]”, the IC50 is 24 µM (active).

Take `CCC1Nc2ncnc(N3CCN(c4ccccc4)CC3)c2N(Cc2ccc(Br)cc2)C1=O` (stereo not drawn): the EC50 in assay [12] was 1.59 µM (active); in assay [13], > 60 µM (not active). The CC50 in assay [14] was > 40 µM (active).

As to `Cc1ccc(-c2nc3ccccc3o2)cc1NC(=S)NC(=O)/C=C/c1ccco1`, in assay [14], the 50% cytotoxic concentration (CC50) is 32.9 µM (active).

Regarding `NCCOc1ccc(C23CC4CC(CC(C4)C2)C3)cc1`, the CC50 in assay [15] is 13.1 µM (active); in the assay with Vero, 10.7 µM (active); in assay [16], > 20 µM (active); in assay [17], 11.4 µM (active). For the same compound, in “cells [18]”, the IC50 was 23.4 µM (active).

As for `CCOc1ccc(C(=O)Nc2ccc(NC(=O)c3ccco3)c(Cl)c2)cc1Br`, the concentration for half-maximal inhibition (IC50) in [19] and in assay [20] was > 39.8 µM (not active) in each case. In addition, the AC50 is 0.398 µM (inconclusive) on Cytochrome P450 2C19, 22.4 µM (inconclusive) on Cytochrome P450 3A4 and 0.562 µM (inconclusive) on Cytochrome P450 2C9. For the same compound, the EC50 in the assay on HEK293 [21] and in the assay on HEK293 [22] was > 59.7 µM (inactive) throughout.
